From ChEMBL document CHEMBL1201861, “Genomics of Drug Sensitity in Cancer screening data, Wellcome Trust Sanger Institute”

Tests used:
Experiment in all cases: cells
Conditions in all cases: Homo sapiens
NCI-H1838 = type: functional, cell-based;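 further: growth inhibition of NCI-H1838 cells, determined with a cell viability readout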
Description: SANGER: Inhibition of human NCI-H1838 cell growth in a cell viability assay.

ETK-1 = type: functional, cell-based;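 further: growth inhibition of human ETK-1 cells, read out with a cell viability assay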
Description: SANGER: Inhibition of human ETK-1 cell growth in a cell viability assay.

LB831-BLC = type: functional, cell-based;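 further: growth inhibition of LB831-BLC cells, read out with a cell viability assay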
Description: SANGER: Inhibition of human LB831-BLC cell growth in a cell viability assay.

HL-60 = type: functional, cell-based;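 further: growth inhibition of human HL-60 cells, read out with a cell viability assay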
Description: SANGER: Inhibition of human HL-60 cell growth in a cell viability assay.

TK-10 = type: functional, cell-based;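 further: growth inhibition of TK-10 cells, read out in a cell viability assay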
Description: SANGER: Inhibition of human TK10 cell growth in a cell viability assay.

GAK = type: functional, cell-based;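 further: cell growth inhibition read out by a cell viability assay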
Description: SANGER: Inhibition of human GAK cell growth in a cell viability assay.

KARPAS-299 = type: functional, cell-based
Description: SANGER: Inhibition of human KARPAS-299 cell growth in a cell viability assay.

SBC-1 = type: functional, cell-based;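 further: cell viability assay measuring growth inhibition of the SBC-1 cell line, IC50 being the concentration that halves growth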
Description: SANGER: Inhibition of human SBC-1 cell growth in a cell viability assay.

LOX IMVI = type: functional, cell-based
Description: SANGER: Inhibition of human LOXIMVI cell growth in a cell viability assay.

A704 = type: functional, cell-based;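 further: growth inhibition of human A704 cells, read out with a cell viability assay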
Description: SANGER: Inhibition of human A704 cell growth in a cell viability assay.

LAN-6 = type: functional, cell-based;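 further: growth inhibition of LAN-6 cells, determined with a cell viability assay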
Description: SANGER: Inhibition of human LAN-6 cell growth in a cell viability assay.

SHP77 = type: functional, cell-based, SHP-77;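 further: growth inhibition of human SHP-77 cells measured by a cell viability assay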
Description: SANGER: Inhibition of human SHP-77 cell growth in a cell viability assay.

MHH-PREB-1 = type: functional, cell-based;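 further: cell viability assay measuring inhibition of proliferation of human MHH-PREB-1 cells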
Description: SANGER: Inhibition of human MHH-PREB-1 cell growth in a cell viability assay.

no-11 = type: functional, cell-based;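 further: growth inhibition of human NO-11 cells, read out with a cell viability assay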
Description: SANGER: Inhibition of human no-11 cell growth in a cell viability assay.

MN-60 = type: functional, cell-based;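 further: growth inhibition of the MN-60 cell line, determined with a cell viability assay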
Description: SANGER: Inhibition of human MN-60 cell growth in a cell viability assay.

MZ1-PC = type: functional, cell-based;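 further: cell viability assay measuring growth inhibition of human MZ1-PC cells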
Description: SANGER: Inhibition of human MZ1-PC cell growth in a cell viability assay.

DMS-79 = type: functional, cell-based;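 further: growth inhibition measured with a cell viability assay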
Description: SANGER: Inhibition of human DMS-79 cell growth in a cell viability assay.

KG-1 = type: functional, cell-based;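 further: growth inhibition of KG-1 cells, read out by a cell viability assay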
Description: SANGER: Inhibition of human KG-1 cell growth in a cell viability assay.

GOTO = type: functional, cell-based;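 further: growth inhibition of GOTO cells, read out by a cell viability assay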
Description: SANGER: Inhibition of human GOTO cell growth in a cell viability assay.

NCI-H69 = type: functional, cell-based;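 further: growth inhibition of the cell line, read out with a cell viability assay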
Description: SANGER: Inhibition of human NCI-H69 cell growth in a cell viability assay.

KS-1 = type: functional, cell-based;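 further: growth inhibition of KS-1 cells, read out with a cell viability assay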
Description: SANGER: Inhibition of human KS-1 cell growth in a cell viability assay.

NCI-H1355 = type: functional, cell-based;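 further: growth inhibition of human NCI-H1355 cells, read out by a cell viability assay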
Description: SANGER: Inhibition of human NCI-H1355 cell growth in a cell viability assay.

OCUB-M = type: functional, cell-based;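 further: growth inhibition of the cancer cell line, read out through a cell viability assay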
Description: SANGER: Inhibition of human OCUB-M cell growth in a cell viability assay.

SK-PN-DW = type: functional, cell-based;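 further: growth inhibition measured with a viability assay on these cells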
Description: SANGER: Inhibition of human SK-PN-DW cell growth in a cell viability assay.

JAR = type: functional, cell-based;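 further: growth inhibition of human JAR cells determined with a cell viability assay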
Description: SANGER: Inhibition of human JAR cell growth in a cell viability assay.

ES1 = type: functional, cell-based;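 further: growth inhibition of ES1 cells, read out with a cell viability assay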
Description: SANGER: Inhibition of human ES1 cell growth in a cell viability assay.

LU-134-A = type: functional, cell-based
Description: SANGER: Inhibition of human LU-134-A cell growth in a cell viability assay.

GR-ST = type: functional, cell-based
Description: SANGER: Inhibition of human GR-ST cell growth in a cell viability assay.

NTERA-2-cl-D1 = type: functional, cell-based;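 further: inhibition of cell growth, measured with a cell viability assay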
Description: SANGER: Inhibition of human NTERA-S-cl-D1 cell growth in a cell viability assay.

NCI-H1648 = type: functional, cell-based;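 further: cell viability assay measuring inhibition of NCI-H1648 cell growth, from the Sanger screening data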
Description: SANGER: Inhibition of human NCI-H1648 cell growth in a cell viability assay.

NOMO-1 = type: functional, cell-based;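 further: growth inhibition of human NOMO-1 cells measured by a cell viability assay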
Description: SANGER: Inhibition of human NOMO-1 cell growth in a cell viability assay.

KNS-42 = type: functional, cell-based;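 further: growth inhibition of KNS-42 cells, read out with a cell viability assay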
Description: SANGER: Inhibition of human KNS-42 cell growth in a cell viability assay.

JVM-2 = type: functional, cell-based;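 further: growth inhibition of JVM-2 cells determined by a cell viability assay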
Description: SANGER: Inhibition of human JVM-2 cell growth in a cell viability assay.

SCH = type: functional, cell-based;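 further: growth inhibition of human SCH cells, read out in a cell viability assay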
Description: SANGER: Inhibition of human SCH cell growth in a cell viability assay.

KMOE-2 = type: functional, cell-based;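 further: growth inhibition of human KMOE-2 cells, read out with a cell viability assay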
Description: SANGER: Inhibition of human KMOE-2 cell growth in a cell viability assay.

IST-SL1 = type: functional, cell-based;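 further: growth inhibition of human IST-SL1 cells, read out with a cell viability assay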
Description: SANGER: Inhibition of human IST-SL1 cell growth in a cell viability assay.

GB-1 = type: functional, cell-based;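 further: growth of GB-1 cells judged by a viability assay, IC50 marks the concentration inhibiting growth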
Description: SANGER: Inhibition of human GB-1 cell growth in a cell viability assay.

MC116 = type: functional, cell-based;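 further: growth inhibition of MC116 cells, read out with a cell viability assay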
Description: SANGER: Inhibition of human MC116 cell growth in a cell viability assay.

ES5 = type: functional, cell-based;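 further: growth inhibition of human ES5 cells, read out by a cell viability assay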
Description: SANGER: Inhibition of human ES5 cell growth in a cell viability assay.

HCC2218 = type: functional, cell-based;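 further: cell viability assay read-out, with IC50 given as the concentration that inhibits growth of the cell line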
Description: SANGER: Inhibition of human HCC2218 cell growth in a cell viability assay.

SW 954 = type: functional, cell-based;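 further: growth inhibition of SW954 human cancer cells, read out as cell viability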
Description: SANGER: Inhibition of human SW954 cell growth in a cell viability assay.

KLE = type: functional, cell-based;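 further: growth inhibition of human KLE cells, read out with a cell viability assay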
Description: SANGER: Inhibition of human KLE cell growth in a cell viability assay.

EOL1 = type: functional, cell-based;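 further: growth inhibition of EoL-1 cells, read out by a cell viability assay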
Description: SANGER: Inhibition of human EoL-1-cell cell growth in a cell viability assay.

J-RT3-T3-5 = type: functional, cell-based;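 further: cell viability assay measuring growth inhibition of human J-RT3-T3-5 cells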
Description: SANGER: Inhibition of human J-RT3-T3-5 cell growth in a cell viability assay.

697 = type: functional, cell-based
Description: SANGER: Inhibition of human 697 cell growth in a cell viability assay.

SNU1 = type: functional, cell-based;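 further: growth inhibition of human NCI-SNU-1 cells, measured with a cell viability assay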
Description: SANGER: Inhibition of human NCI-SNU-1 cell growth in a cell viability assay.

SNU-C2B = type: functional, cell-based;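 further: cell viability readout used to measure compound-driven suppression of SNU-C2B cell proliferation, IC50 marking half-maximal growth inhibition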
Description: SANGER: Inhibition of human SNU-C2B cell growth in a cell viability assay.

LS-513 = type: functional, cell-based
Description: SANGER: Inhibition of human LS-513 cell growth in a cell viability assay.

NCI-H1155 = type: functional, cell-based;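 further: cell growth inhibition measured by a viability assay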
Description: SANGER: Inhibition of human NCI-H1155 cell growth in a cell viability assay.

Ramos-2G6-4C10 = type: functional, cell-based;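 further: growth inhibition of the cell line, measured by a cell viability read-out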
Description: SANGER: Inhibition of human Ramos-2G6-4C10 cell growth in a cell viability assay.

SH-4 = type: functional, cell-based;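 further: growth inhibition of SH-4 cells, read out with a cell viability assay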
Description: SANGER: Inhibition of human SH-4 cell growth in a cell viability assay.

SK-MEL-2 = type: functional, cell-based;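 further: growth inhibition of human SK-MEL-2 cells measured with a cell viability assay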
Description: SANGER: Inhibition of human SK-MEL-2 cell growth in a cell viability assay.

RPMI-8226 = type: functional, cell-based
Description: SANGER: Inhibition of human RPMI-8226 cell growth in a cell viability assay.

GI-1 = type: functional, cell-based
Description: SANGER: Inhibition of human GI-1 cell growth in a cell viability assay.

EC-GI-10 = type: functional, cell-based
Description: SANGER: Inhibition of human EC-GI-10 cell growth in a cell viability assay.

LB1047-RCC = type: functional, cell-based
Description: SANGER: Inhibition of human LB1047-RCC cell growth in a cell viability assay.

OMC-1 = type: functional, cell-based
Description: SANGER: Inhibition of human OMC-1 cell growth in a cell viability assay.

HDLM-2 = type: functional, cell-based
Description: SANGER: Inhibition of human HDLM-2 cell growth in a cell viability assay.

Calu-6 = type: functional, cell-based
Description: SANGER: Inhibition of human Calu-6 cell growth in a cell viability assay.

RXF 393 = type: functional, cell-based
Description: SANGER: Inhibition of human RXF393 cell growth in a cell viability assay.

NCI-H1770 = type: functional, cell-based
Description: SANGER: Inhibition of human NCI-H1770 cell growth in a cell viability assay.

MOLT-16 = type: functional, cell-based
Description: SANGER: Inhibition of human MOLT-16 cell growth in a cell viability assay.

ES8 = type: functional, cell-based
Description: SANGER: Inhibition of human ES8 cell growth in a cell viability assay.

C8166 = type: functional, cell-based
Description: SANGER: Inhibition of human C8166 cell growth in a cell viability assay.

KY821 = type: functional, cell-based
Description: SANGER: Inhibition of human KY821 cell growth in a cell viability assay.

KU812 cell line = type: functional, cell-based
Description: SANGER: Inhibition of human KU812 cell growth in a cell viability assay.

SMILES: C[C@]1(c2nc3c(C(N)=O)cccc3[nH]2)CCCN1 [VELIPARIB]
- IC50 (NCI-H1838): > 5000 nM
- IC50 (ETK-1): > 5000 nM
- IC50 (LB831-BLC): > 5000 nM
- IC50 (HL-60): > 5000 nM
- IC50 (TK-10): > 5000 nM
- IC50 (GAK): > 5000 nM
- IC50 (KARPAS-299): > 5000 nM
- IC50 (SBC-1): > 5000 nM
- IC50 (LOX IMVI): > 5000 nM
- IC50 (A704): > 5000 nM
- IC50 (LAN-6): > 5000 nM
- IC50 (SHP77): > 5000 nM
- IC50 (MHH-PREB-1): > 5000 nM
- IC50 (no-11): > 5000 nM
- IC50 (MN-60): > 5000 nM
- IC50 (MZ1-PC): > 5000 nM
- IC50 (DMS-79): > 5000 nM
- IC50 (KG-1): > 5000 nM
- IC50 (GOTO): > 5000 nM
- IC50 (NCI-H69): > 5000 nM
- IC50 (KS-1): > 5000 nM
- IC50 (NCI-H1355): > 5000 nM
- IC50 (OCUB-M): > 5000 nM
- IC50 (SK-PN-DW): > 5000 nM
- IC50 (JAR): > 5000 nM
- IC50 (ES1): > 5000 nM
- IC50 (LU-134-A): > 5000 nM
- IC50 (GR-ST): > 5000 nM
- IC50 (NTERA-2-cl-D1): > 5000 nM
- IC50 (NCI-H1648): > 5000 nM
- IC50 (NOMO-1): > 5000 nM
- IC50 (KNS-42): > 5000 nM
- IC50 (JVM-2): > 5000 nM
- IC50 (SCH): > 5000 nM
- IC50 (KMOE-2): > 5000 nM
- IC50 (IST-SL1): > 5000 nM
- IC50 (GB-1): > 5000 nM
- IC50 (MC116): > 5000 nM
- IC50 (ES5): > 5000 nM
- IC50 (HCC2218): > 5000 nM
- IC50 (SW 954): > 5000 nM
- IC50 (KLE): > 5000 nM
- IC50 (EOL1): 1080 nM
- IC50 (J-RT3-T3-5): > 5000 nM
- IC50 697: > 5000 nM
- IC50 (SNU1): > 5000 nM
- IC50 (SNU-C2B): > 5000 nM
- IC50 (LS-513): > 5000 nM
- IC50 (NCI-H1155): > 5000 nM
- IC50 (Ramos-2G6-4C10): > 5000 nM
- IC50 (SH-4): > 5000 nM
- IC50 (SK-MEL-2): > 5000 nM
- IC50 (RPMI-8226): > 5000 nM
- IC50 (GI-1): > 5000 nM
- IC50 (EC-GI-10): > 5000 nM
- IC50 (LB1047-RCC): > 5000 nM
- IC50 (OMC-1): > 5000 nM
- IC50 (HDLM-2): > 5000 nM
- IC50 (Calu-6): > 5000 nM
- IC50 (RXF 393): > 5000 nM
- IC50 (NCI-H1770): > 5000 nM
- IC50 (MOLT-16): > 5000 nM
- IC50 (ES8): > 5000 nM
- IC50 (C8166): > 5000 nM
- IC50 (KY821): > 5000 nM
- IC50 (KU812 cell line): > 5000 nM

SMILES: CC[C@]1(O)C[C@@H]2CN(CCc3c([nH]c4ccccc34)[C@@](C(=O)OC)(c3cc4c(cc3OC)N(C)[C@H]3[C@@](O)(C(=O)OC)[C@H](OC(C)=O)[C@]5(CC)C=CCN6CC[C@]43[C@@H]65)C2)C1 [VINBLASTINE]
- IC50 (NCI-H1838): > 100 nM
- IC50 (ETK-1): 5.79 nM
- IC50 (LB831-BLC): 21.2 nM
- IC50 (HL-60): 4.37 nM
- IC50 (TK-10): 42.4 nM
- IC50 (GAK): > 100 nM
- IC50 (KARPAS-299): > 100 nM
- IC50 (SBC-1): 8.1 nM
- IC50 (LOX IMVI): 6.98 nM
- IC50 (A704): > 100 nM
- IC50 (LAN-6): 47.7 nM
- IC50 (SHP77): > 100 nM
- IC50 (MHH-PREB-1): 1.49 nM
- IC50 (no-11): 38.8 nM
- IC50 (MN-60): 29.4 nM
- IC50 (MZ1-PC): 24.2 nM
- IC50 (DMS-79): > 100 nM
- IC50 (KG-1): 18.4 nM
- IC50 (GOTO): 8.21 nM
- IC50 (NCI-H69): > 100 nM
- IC50 (KS-1): 7.99 nM
- IC50 (NCI-H1355): 19.5 nM
- IC50 (OCUB-M): 7.56 nM
- IC50 (SK-PN-DW): 6.14 nM
- IC50 (JAR): 0.608 nM
- IC50 (ES1): 4.71 nM
- IC50 (LU-134-A): 8.58 nM
- IC50 (GR-ST): 7.63 nM
- IC50 (NTERA-2-cl-D1): 5.89 nM
- IC50 (NCI-H1648): 5.52 nM
- IC50 (NOMO-1): 7.86 nM
- IC50 (KNS-42): 18.7 nM
- IC50 (JVM-2): > 100 nM
- IC50 (SCH): 29.7 nM
- IC50 (KMOE-2): 20.8 nM
- IC50 (IST-SL1): 1.19 nM
- IC50 (GB-1): 39.8 nM
- IC50 (MC116): 7.95 nM
- IC50 (ES5): 3.88 nM
- IC50 (HCC2218): 79.3 nM
- IC50 (SW 954): 9.66 nM
- IC50 (KLE): > 100 nM
- IC50 (EOL1): 1.26 nM
- IC50 (J-RT3-T3-5): 0.788 nM
- IC50 697: 6.23 nM
- IC50 (SNU1): 1.62 nM
- IC50 (SNU-C2B): 24.7 nM
- IC50 (LS-513): 56.3 nM
- IC50 (NCI-H1155): 43.7 nM
- IC50 (Ramos-2G6-4C10): 1.55 nM
- IC50 (SH-4): 43.5 nM
- IC50 (SK-MEL-2): 53.3 nM
- IC50 (RPMI-8226): 2.85 nM
- IC50 (GI-1): 4.36 nM
- IC50 (EC-GI-10): 3.53 nM
- IC50 (LB1047-RCC): 40.3 nM
- IC50 (OMC-1): > 100 nM
- IC50 (HDLM-2): > 100 nM
- IC50 (Calu-6): > 100 nM
- IC50 (RXF 393): 1.44 nM
- IC50 (NCI-H1770): 28.5 nM
- IC50 (MOLT-16): 2.43 nM
- IC50 (ES8): 3.24 nM
- IC50 (C8166): 27 nM
- IC50 (KY821): 3.69 nM
- IC50 (KU812 cell line): 16.8 nM
